Activity calls are given as the source filed them. The calls are words filed in the database; no cut-off is given here.
Assays:
A549 = assay: Antitumor activity against A549 cells; assay type: functional; settings: Homo sapiens
CCRF-CEM = assay: Antitumor activity against CCRF-CEM cells; assay type: functional; settings: Homo sapiens
[1] = Antitumor activity against HL60(TB) cells; assay type: functional, HL-60(TB); settings: Homo sapiens, HL-60
K562 = assay: Antitumor activity against K562 cells; assay type: functional; settings: Homo sapiens
RPMI-8226 = assay: Antitumor activity against RPMI8226 cells; assay type: functional; settings: Homo sapiens
MOLT-4 = assay: Antitumor activity against MOLT4 cells; assay type: functional; settings: Homo sapiens
SR = assay: Antitumor activity against SR cells; assay type: functional; settings: Homo sapiens
EKVX = assay: Antitumor activity against EKVX cells; assay type: functional; settings: Homo sapiens
HOP-62 = assay: Antitumor activity against HOP62 cells; assay type: functional; settings: Homo sapiens
HOP-92 = assay: Antitumor activity against HOP92 cells; assay type: functional; settings: Homo sapiens
NCI-H226 = assay: Antitumor activity against NCI-H226 cells; assay type: functional; settings: Homo sapiens
NCI-H23 = assay: Antitumor activity against NCI-H23 cells; assay type: functional; settings: Homo sapiens
NCI-H322M = assay: Antitumor activity against NCI-H322M cells; assay type: functional; settings: Homo sapiens
NCI-H460 = assay: Antitumor activity against NCI-H460 cells; assay type: functional; settings: Homo sapiens
NCI-H522 = assay: Antitumor activity against NCI-H522 cells; assay type: functional; settings: Homo sapiens
COLO 205 = assay: Antitumor activity against COLO205 cells; assay type: functional; settings: Homo sapiens
HCC 2998 = assay: Antitumor activity against HCC2998 cells; assay type: functional; settings: Homo sapiens
HCT-116 = assay: Antitumor activity against HCT116 cells; assay type: functional; settings: Homo sapiens
HCT-15 = assay: Antitumor activity against HCT15 cells; assay type: functional; settings: Homo sapiens
HT-29 = assay: Antitumor activity against HT29 cells; assay type: functional; settings: Homo sapiens
KM12 = assay: Antitumor activity against KM12 cells; assay type: functional; settings: Homo sapiens
SW-620 = assay: Antitumor activity against SW620 cells; assay type: functional; settings: Homo sapiens
SF-268 = assay: Antitumor activity against SF268 cells; assay type: functional; settings: Homo sapiens
SF-295 = assay: Antitumor activity against SF295 cells; assay type: functional; settings: Homo sapiens
SF-539 = assay: Antitumor activity against SF539 cells; assay type: functional; settings: Homo sapiens
SNB-19 = assay: Antitumor activity against SNB19 cells; assay type: functional; settings: Homo sapiens
SNB-75 = assay: Antitumor activity against SNB75 cells; assay type: functional; settings: Homo sapiens
U-251 = assay: Antitumor activity against U251 cells; assay type: functional; settings: Homo sapiens
LOX IMVI = assay: Antitumor activity against LOX-IMVI cells; assay type: functional; settings: Homo sapiens
Malme-3M = assay: Antitumor activity against MALME-3M cells; assay type: functional; settings: Homo sapiens
M14 = assay: Antitumor activity against M14 cells; assay type: functional; settings: Homo sapiens
SK-MEL-2 = assay: Antitumor activity against SK-MEL-2 cells; assay type: functional; settings: Homo sapiens
SK-MEL-28 = assay: Antitumor activity against SK-MEL-28 cells; assay type: functional; settings: Homo sapiens
SK-MEL-5 = assay: Antitumor activity against SK-MEL-5 cells; assay type: functional; settings: Homo sapiens
UACC-257 = assay: Antitumor activity against UACC257 cells; assay type: functional; settings: Homo sapiens
UACC-62 = assay: Antitumor activity against UACC62 cells; assay type: functional; settings: Homo sapiens
IGROV-1 = assay: Antitumor activity against IGROV1 cells; assay type: functional; settings: Homo sapiens
OVCAR-3 = assay: Antitumor activity against OVCAR-3 cells; assay type: functional; settings: Homo sapiens
OVCAR-4 = assay: Antitumor activity against OVCAR4 cells; assay type: functional; settings: Homo sapiens
OVCAR-5 = assay: Antitumor activity against OVCAR5 cells; assay type: functional; settings: Homo sapiens
OVCAR-8 = assay: Antitumor activity against OVCAR8 cells; assay type: functional; settings: Homo sapiens
SK-OV-3 = assay: Antitumor activity against SKOV3 cells; assay type: functional; settings: Homo sapiens
786-0 = assay: Antitumor activity against 7860 cells; assay type: functional; settings: Homo sapiens
A498 = assay: Antitumor activity against A498 cells; assay type: functional; settings: Homo sapiens
ACHN = assay: Antitumor activity against ACHN cells; assay type: functional; settings: Homo sapiens
CAKI-1 = assay: Antitumor activity against CAKI1 cells; assay type: functional; settings: Homo sapiens
RXF 393 = assay: Antitumor activity against RXF393 cells; assay type: functional; settings: Homo sapiens
SN12C = assay: Antitumor activity against SN12C cells; assay type: functional; settings: Homo sapiens
TK-10 = assay: Antitumor activity against TK10 cells; assay type: functional; settings: Homo sapiens
UO-31 = assay: Antitumor activity against UO31 cells; assay type: functional; settings: Homo sapiens
PC-3 = assay: Antitumor activity against PC3 cells; assay type: functional; settings: Homo sapiens
DU-145 = assay: Antitumor activity against DU145 cells; assay type: functional; settings: Homo sapiens
MCF7 = assay: Antitumor activity against MCF7 cells; assay type: functional; settings: Homo sapiens
NCI/ADR-RES = assay: Antitumor activity against NCI/ADRRES cells; assay type: functional; settings: Homo sapiens
MDA-MB-231 = assay: Antitumor activity against MDA-MB-231 cells; assay type: functional; settings: Homo sapiens
Hs-578T = assay: Antitumor activity against HS578T cells; assay type: functional; settings: Homo sapiens
BT-549 = assay: Antitumor activity against BT549 cells; assay type: functional; settings: Homo sapiens
T47D = assay: Antitumor activity against T47D cells; assay type: functional; settings: Homo sapiens
[2] = target: DNA topoisomerase 2-alpha (Homo sapiens) (UniProt P11388); assay: Inhibition of human recombinant topoisomerase 2-mediated relaxation of supercoiled plasmid pBR322 DNA at 50 uM
MDA-MB-435 = assay: Antitumor activity against MDA-MB-435 cells; assay type: functional; settings: Homo sapiens
[3] = target: DNA topoisomerase 2-alpha (Homo sapiens) (UniProt P11388); assay: Inhibition of human recombinant topoisomerase 2-mediated relaxation of supercoiled plasmid pBR322 DNA at 100 uM
[4] = target: DNA topoisomerase 2-alpha (Homo sapiens) (UniProt P11388); assay: Inhibition of human recombinant topoisomerase 2-mediated relaxation of supercoiled plasmid pBR322 DNA at 8 uM
[5] = read-out: LC50 (the source's name)

Chain of DNA topoisomerase 2-alpha (Homo sapiens) (P11388 whole entry): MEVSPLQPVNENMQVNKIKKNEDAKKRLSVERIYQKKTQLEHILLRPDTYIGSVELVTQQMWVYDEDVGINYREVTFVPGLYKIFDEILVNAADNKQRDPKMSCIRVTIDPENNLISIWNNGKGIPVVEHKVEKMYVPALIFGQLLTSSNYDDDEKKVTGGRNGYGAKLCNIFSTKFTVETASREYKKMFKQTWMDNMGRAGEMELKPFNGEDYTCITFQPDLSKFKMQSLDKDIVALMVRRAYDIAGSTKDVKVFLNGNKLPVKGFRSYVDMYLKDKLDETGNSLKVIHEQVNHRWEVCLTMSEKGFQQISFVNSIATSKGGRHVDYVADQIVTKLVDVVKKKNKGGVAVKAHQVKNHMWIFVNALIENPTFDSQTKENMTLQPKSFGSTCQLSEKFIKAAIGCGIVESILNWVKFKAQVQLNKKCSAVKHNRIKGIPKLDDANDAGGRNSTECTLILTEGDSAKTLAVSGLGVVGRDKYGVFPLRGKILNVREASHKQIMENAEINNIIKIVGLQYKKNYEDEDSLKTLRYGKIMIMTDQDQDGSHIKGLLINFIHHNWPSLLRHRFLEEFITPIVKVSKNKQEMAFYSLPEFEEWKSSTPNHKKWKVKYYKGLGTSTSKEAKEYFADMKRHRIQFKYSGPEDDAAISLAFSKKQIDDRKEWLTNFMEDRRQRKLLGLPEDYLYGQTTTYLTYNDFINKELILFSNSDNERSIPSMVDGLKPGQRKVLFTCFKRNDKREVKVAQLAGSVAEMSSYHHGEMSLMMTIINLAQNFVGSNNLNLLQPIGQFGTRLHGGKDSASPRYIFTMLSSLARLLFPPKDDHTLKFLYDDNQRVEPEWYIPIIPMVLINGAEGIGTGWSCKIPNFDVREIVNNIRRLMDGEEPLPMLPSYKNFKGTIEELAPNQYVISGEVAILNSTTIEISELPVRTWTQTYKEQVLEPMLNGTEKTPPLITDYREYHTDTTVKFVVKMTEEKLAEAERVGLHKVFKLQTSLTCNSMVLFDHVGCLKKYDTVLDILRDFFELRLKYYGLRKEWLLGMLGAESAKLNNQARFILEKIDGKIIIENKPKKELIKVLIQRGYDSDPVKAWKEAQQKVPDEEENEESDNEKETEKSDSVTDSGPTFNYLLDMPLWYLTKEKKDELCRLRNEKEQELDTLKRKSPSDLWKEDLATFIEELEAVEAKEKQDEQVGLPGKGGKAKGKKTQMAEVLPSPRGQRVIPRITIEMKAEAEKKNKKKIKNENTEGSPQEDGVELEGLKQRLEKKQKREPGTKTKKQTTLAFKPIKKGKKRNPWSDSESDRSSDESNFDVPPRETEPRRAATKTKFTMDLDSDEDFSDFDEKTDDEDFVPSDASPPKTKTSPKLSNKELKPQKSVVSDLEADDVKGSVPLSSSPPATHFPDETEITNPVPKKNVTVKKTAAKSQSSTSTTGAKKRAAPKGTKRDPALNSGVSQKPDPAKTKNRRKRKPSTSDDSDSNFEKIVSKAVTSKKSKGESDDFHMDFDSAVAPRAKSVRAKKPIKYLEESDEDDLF

`Cn1cc(-c2cc(-c3cn(C)c4ccccc34)[nH]n2)c2ccccc21` showed a GI50 (A549) of 16.3 µM, a GI50 (CCRF-CEM) of 14.4 µM and a GI50 [1] of 15.4 µM. The GI50 (K562) was 42.1 µM, the GI50 (RPMI-8226) was 37.8 µM and the GI50 (MOLT-4) was 4.75 µM. The GI50 (SR) was 3.46 µM, the GI50 (EKVX) was 27.2 µM and the GI50 (HOP-62) was 17.3 µM. It also gave a GI50 (HOP-92) of 2.06 µM, a GI50 (NCI-H226) of 19.8 µM and a GI50 (NCI-H23) of 22 µM. For the same compound, the GI50 (NCI-H322M) was > 100 µM, the GI50 (NCI-H460) was 4.48 µM and the GI50 (NCI-H522) was 22.1 µM. It also gave a GI50 (COLO 205) of 7.98 µM, a GI50 (HCC 2998) of 4.74 µM and a GI50 (HCT-116) of 19 µM. The GI50 (HCT-15) was 8.68 µM, the GI50 (HT-29) was 5.35 µM and the GI50 (KM12) was 4.58 µM. For the same compound, the GI50 (SW-620) was > 100 µM, the GI50 (SF-268) was 16 µM and the GI50 (SF-295) was 17.1 µM. For the same compound, the GI50 (SF-539) was 16.2 µM, the GI50 (SNB-19) was 27 µM and the GI50 (SNB-75) was 18.4 µM. The GI50 (U-251) was 12.9 µM, the GI50 (LOX IMVI) was 5.38 µM and the GI50 (Malme-3M) was 93.1 µM. For the same compound, the GI50 (M14) was > 100 µM, the GI50 (SK-MEL-2) was 57.5 µM and the GI50 (SK-MEL-28) was > 100 µM. It also gave a GI50 (SK-MEL-5) of 13.1 µM, a GI50 (UACC-257) of 80.6 µM and a GI50 (UACC-62) of 16.4 µM. For the same compound, the GI50 (IGROV-1) was 8.9 µM, the GI50 (OVCAR-3) was 28.4 µM and the GI50 (OVCAR-4) was 34.9 µM. For the same compound, the GI50 (OVCAR-5) was > 100 µM, the GI50 (OVCAR-8) was 28.8 µM and the GI50 (SK-OV-3) was 31.6 µM. For the same compound, the GI50 (786-0) was 14.1 µM, the GI50 (A498) was 19.6 µM and the GI50 (ACHN) was 7.67 µM. The GI50 (CAKI-1) was > 100 µM, the GI50 (RXF 393) was 14.7 µM and the GI50 (SN12C) was 1.95 µM. It also gave a GI50 (TK-10) of 37.4 µM, a GI50 (UO-31) of 37.6 µM and a GI50 (PC-3) of 8.11 µM. It also gave a GI50 (DU-145) of 15.6 µM, a GI50 (MCF7) of 3.95 µM and a GI50 (NCI/ADR-RES) of 27.6 µM. The GI50 (MDA-MB-231) was 8.06 µM, the GI50 (Hs-578T) was 18.5 µM and the GI50 (BT-549) was 15.9 µM. For the same compound, the GI50 (T47D) was 79.7 µM and the Activity [2] was “Active”.

In the case of `Cn1cc(-c2cc(-c3cn(C)c4ccc(Cl)cc34)[nH]n2)c2cc(Cl)ccc21`, the GI50 (A549) is reported as 3.24 µM, the GI50 (CCRF-CEM) is reported as 6.4 µM and the GI50 [1] is reported as 4.45 µM. It also gave a GI50 (K562) of 2.78 µM, a GI50 (RPMI-8226) of 6.79 µM and a GI50 (MOLT-4) of 1.55 µM. It also gave a GI50 (SR) of 2.36 µM, a GI50 (EKVX) of 3.15 µM and a GI50 (HOP-62) of 7.98 µM. For the same compound, the GI50 (HOP-92) was 1.86 µM, the GI50 (NCI-H226) was 5.29 µM and the GI50 (NCI-H23) was 2.49 µM. It also gave a GI50 (NCI-H322M) of 5.73 µM, a GI50 (NCI-H460) of 2.35 µM and a GI50 (NCI-H522) of 1.75 µM. The GI50 (COLO 205) was 2.22 µM, the GI50 (HCC 2998) was 1.71 µM and the TGI (HCC 2998) was 3.84 µM. The CC50 (HCC 2998; [5]) was 8.63 µM, the GI50 (HCT-116) was 3.82 µM and the GI50 (HCT-15) was 3.01 µM. It also gave a GI50 (HT-29) of 3.57 µM, a GI50 (KM12) of 3.45 µM and a GI50 (SW-620) of 3.52 µM. For the same compound, the GI50 (SF-268) was 5.29 µM, the GI50 (SF-295) was 2.52 µM and the GI50 (SF-539) was 1.81 µM. For the same compound, the TGI (SF-539) was 3.47 µM, the CC50 (SF-539; [5]) was 6.62 µM and the GI50 (SNB-19) was 4.09 µM. For the same compound, the GI50 (SNB-75) was 4.25 µM, the GI50 (U-251) was 3.37 µM and the GI50 (LOX IMVI) was 1.7 µM. It also gave a TGI (LOX IMVI) of 3.8 µM, a CC50 (LOX IMVI; [5]) of 8.53 µM and a GI50 (Malme-3M) of 9.64 µM. For the same compound, the GI50 (M14) was 2.15 µM, the GI50 (SK-MEL-2) was 2.34 µM and the GI50 (SK-MEL-28) was 4.8 µM. The GI50 (SK-MEL-5) was 1.79 µM, the GI50 (UACC-257) was 4.27 µM and the GI50 (UACC-62) was 1.63 µM. For the same compound, the GI50 (IGROV-1) was 2.55 µM, the GI50 (OVCAR-3) was 4.41 µM and the GI50 (OVCAR-4) was 5.82 µM. It also gave a GI50 (OVCAR-5) of 3.11 µM, a GI50 (OVCAR-8) of 4.03 µM and a GI50 (SK-OV-3) of 5.81 µM. It also gave a GI50 (786-0) of 3.41 µM, a GI50 (A498) of 2.44 µM and a GI50 (ACHN) of 3.23 µM. It also gave a GI50 (CAKI-1) of 1.7 µM, a GI50 (RXF 393) of 3.03 µM and a GI50 (TK-10) of 5.16 µM. It also gave a GI50 (UO-31) of 3.01 µM, a GI50 (PC-3) of 3.05 µM and a GI50 (DU-145) of 9.6 µM. The GI50 (MCF7) was 2.64 µM, the GI50 (NCI/ADR-RES) was 2.25 µM and the GI50 (MDA-MB-231) was 2.95 µM. For the same compound, the GI50 (Hs-578T) was 3.27 µM, the GI50 (MDA-MB-435) was 2.99 µM and the GI50 (BT-549) was 2.03 µM. The GI50 (T47D) was 4.06 µM and the Activity [3] was “Active”.

With `COc1cc(NS(C)(=O)=O)ccc1Nc1c2ccccc2nc2ccccc12` the Activity [4] was “Active”.
